The text below walks through data of patent publication US11173137B2, “Compositions and methods to modulate chloride ion channel activity” (The Board of Trustees of the Leland Stanford Junior …, priority 2018, dated 2021).

Several values for one entry are separate records, joined by “and”; a condition that tells them apart may be missing. Equal entries are not always repeated. Where two headings read alike, the source gives them in different places. Where only a bound is given, the exact number is not on record here.

The target of assay [1] is T1, CLC-2 (Homo sapiens (Human), UniProt P51788). The assay can be described thus: IonWorks Barracuda automated patch-clamp electrophysiology, human CLC-2 cell line. The assay is classed as cell-based. Conditions: for % inhibition at the concentration listed (in parenthesis): CLC-2, at the concentration listed in the IC50 cell, negative = increase in peak current. An excerpt:
FIG. 8, panels A and B depict graphically the Selectivity between CLC-1 and CLC-2. […]
For orientation: Patch clamp records ionic current or voltage across a cell membrane.

The next assay has as its target CLC-1 (Homo sapiens (Human), UniProt P35523). Kind of assay: IonWorks Barracuda automated patch-clamp electrophysiology, CLC-1. Conditions: for IC50: Table 2. The class given is cell-based. Here is the method:
If the IC50 was greater than the highest concentration tested, this concentration is listed along with the percent inhibition at this concentration (in parenthesis).
FIG. 8, panels A and B depict graphically the Selectivity between CLC-1 and CLC-2. […] Data points represent the mean current block at 16 different FA44 concentrations (n=4-8), using the IonWorks™ Barracuda. […] Panel B depicts a summary graph showing the mean inhibition of CLC-1 (left bar) or CLC-2 (right bar) current at 30 μM, illustrating the improvement in both selectivity and potency from the hit compound MCFA to the exemplary compound FA44.

Assay [2] addresses T1, CLC-2. Conditions: cited from earlier work.
Where [3] appears, read: n = 4 cells, four concentrations of each compound, IonWorks Barracuda, read-out: IC50 (μM) against CLC-2.
The mark [4] stands for this setting: Table 2, read-out: IC50 (CLC-2).

For orientation: IC50 means the concentration at which inhibition is half-maximal.

CLC-1, sequence (P35523 whole entry): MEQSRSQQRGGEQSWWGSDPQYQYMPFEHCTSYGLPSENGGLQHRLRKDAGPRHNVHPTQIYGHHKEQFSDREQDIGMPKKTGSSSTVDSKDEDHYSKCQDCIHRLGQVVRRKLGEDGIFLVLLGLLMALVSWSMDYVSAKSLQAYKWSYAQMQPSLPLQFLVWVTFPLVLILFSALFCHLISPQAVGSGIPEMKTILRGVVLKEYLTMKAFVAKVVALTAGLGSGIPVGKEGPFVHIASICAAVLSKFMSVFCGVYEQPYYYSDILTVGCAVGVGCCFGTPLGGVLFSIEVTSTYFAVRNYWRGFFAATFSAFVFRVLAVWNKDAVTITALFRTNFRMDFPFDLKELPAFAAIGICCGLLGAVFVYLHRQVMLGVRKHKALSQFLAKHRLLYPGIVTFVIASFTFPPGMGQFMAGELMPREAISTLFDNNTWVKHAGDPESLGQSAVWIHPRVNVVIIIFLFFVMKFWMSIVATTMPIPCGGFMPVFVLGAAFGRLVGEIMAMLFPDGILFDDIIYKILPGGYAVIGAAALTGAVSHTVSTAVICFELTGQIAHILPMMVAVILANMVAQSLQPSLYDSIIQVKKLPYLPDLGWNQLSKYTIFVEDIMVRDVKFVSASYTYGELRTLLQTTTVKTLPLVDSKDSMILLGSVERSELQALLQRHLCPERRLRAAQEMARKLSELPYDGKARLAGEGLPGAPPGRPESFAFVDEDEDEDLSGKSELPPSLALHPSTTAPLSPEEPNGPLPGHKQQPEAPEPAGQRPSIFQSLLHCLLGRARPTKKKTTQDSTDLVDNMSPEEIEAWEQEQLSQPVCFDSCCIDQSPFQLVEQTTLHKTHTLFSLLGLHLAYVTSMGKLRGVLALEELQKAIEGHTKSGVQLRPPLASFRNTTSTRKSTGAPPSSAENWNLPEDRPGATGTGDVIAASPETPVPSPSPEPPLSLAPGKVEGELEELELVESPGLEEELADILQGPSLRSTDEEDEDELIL
T1 sequence (P51788 whole entry): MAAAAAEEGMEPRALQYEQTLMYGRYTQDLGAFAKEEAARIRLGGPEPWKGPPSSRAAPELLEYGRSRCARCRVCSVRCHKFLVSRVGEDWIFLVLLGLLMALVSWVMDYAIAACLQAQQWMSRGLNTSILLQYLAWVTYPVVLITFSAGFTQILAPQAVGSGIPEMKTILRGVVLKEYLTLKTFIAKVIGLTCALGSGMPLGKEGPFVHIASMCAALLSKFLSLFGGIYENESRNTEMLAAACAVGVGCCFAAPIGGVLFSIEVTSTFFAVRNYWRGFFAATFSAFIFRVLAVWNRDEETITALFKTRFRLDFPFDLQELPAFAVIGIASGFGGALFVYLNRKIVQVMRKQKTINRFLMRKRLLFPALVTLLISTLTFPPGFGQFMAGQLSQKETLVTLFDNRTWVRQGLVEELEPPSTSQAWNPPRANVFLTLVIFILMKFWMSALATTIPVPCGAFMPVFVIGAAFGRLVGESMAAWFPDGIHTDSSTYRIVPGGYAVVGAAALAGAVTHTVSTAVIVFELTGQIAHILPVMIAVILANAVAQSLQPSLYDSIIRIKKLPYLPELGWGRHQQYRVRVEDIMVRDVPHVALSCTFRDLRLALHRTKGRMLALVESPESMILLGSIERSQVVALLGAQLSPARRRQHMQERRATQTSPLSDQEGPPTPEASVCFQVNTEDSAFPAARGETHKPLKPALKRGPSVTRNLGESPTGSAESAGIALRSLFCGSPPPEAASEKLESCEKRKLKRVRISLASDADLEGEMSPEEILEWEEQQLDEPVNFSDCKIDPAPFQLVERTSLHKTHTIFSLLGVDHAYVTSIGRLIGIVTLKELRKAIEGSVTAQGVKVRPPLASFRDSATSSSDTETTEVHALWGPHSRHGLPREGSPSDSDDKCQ

With `O=C(O)c1ccccc1Nc1ccc(Cl)cc1Cl` [AK2-200A], the “% inhibition at the concentration listed (in parenthesis)” value (from here on “% inhibition”) at CLC-2 [1] is recorded as “(13%)”. Moreover, on CLC-2 [1] (setting [3]), the IC50 was more than 120 µM.
For `O=C(O)c1ccccc1Nc1ccc(Cl)c(Cl)c1` [AK2-200B] the same measures were “(12%)” and more than 120 µM.
As for `Cc1cccc(Nc2ccccc2C(=O)O)c1Cl` [AK2-200C], on CLC-2 [1], the “% inhibition” value is “(43%)”. Moreover, the half-maximal inhibitory concentration (IC50) at CLC-2 [1] (setting [3]) was more than 120 µM.
With `O=C(O)c1ccccc1Nc1c(Cl)cccc1Cl` [AK2-209A], the IC50 on CLC-2 [1] (setting [3]) worked out at 22.1 µM.
`O=C(O)c1ccccc1Nc1cc(Cl)ccc1Cl` [AK2-209B]: at CLC-2 [1], the “% inhibition” value is listed as “(23%)”. The 50% inhibitory concentration (IC50) on CLC-2 [1] (setting [3]) is more than 120 µM.
For `Cc1ccc(Cl)c(Nc2ccccc2C(=O)O)c1` [AK2-214A] the same measures were “(48%)” and more than 120 µM.
The corresponding values for `O=C(O)c1ccccc1Nc1c(Cl)cc(Cl)cc1Cl` [AK2-214B] are “(22%)” and more than 120 µM.
The corresponding values for `O=C(O)c1ccccc1Nc1c(F)cccc1F` [AK2-214C] are “(41%)” and more than 120 µM.
Regarding `Cc1ccc(Cl)c(Nc2ccccc2OS(=O)(=O)O)c1Cl` [AK2-262], the “% inhibition” value on CLC-2 [1] is “(28%)”. Also, the half-inhibitory concentration (IC50) on CLC-2 [1] (setting [3]) is more than 120 µM.
As for `O=C(O)c1ccccc1Nc1c(Cl)ccc(C(F)(F)F)c1Cl` [AK2-270A], the IC50 at CLC-2 [1] (setting [3]) amounted to 35.7 µM.
`O=C(O)c1cccc2c1[nH]c1c(Cl)ccc(C(F)(F)F)c12` [AK2-270B]: on CLC-2 [1], the “% inhibition” value is reported as “(−48%)”. The concentration for half-maximal inhibition (IC50) at CLC-2 [1] (setting [3]) is more than 120 µM.
On to `Cc1ccc(C(=O)O)c(Nc2c(Cl)ccc(C)c2Cl)c1` [AK2-288A], for which the IC50 at CLC-2 [1] (setting [3]) was 24.7 µM.
On to `Cc1ccc(Cl)c(Nc2cccc(C)c2C(=O)O)c1Cl` [AK2-288C], for which the “% inhibition” value at CLC-2 [1] is recorded as “(37%)”. For the same compound, the IC50 at CLC-2 [1] (setting [3]) was more than 102 µM.
As for `COc1ccc(Cl)c(Nc2ccccc2C(=O)O)c1Cl` [AK2-289A], on CLC-2 [1] (setting [3]), the half-inhibitory concentration (IC50) is 9.86 µM.
On the same count and under the same terms, the result for `C=C(C)c1ccc(Cl)c(Nc2ccccc2C(=O)O)c1Cl` [AK2-289B] reads 7.16 µM; that for `Cc1cccc(C)c1Nc1ccccc1C(=O)O` [AK2-289C], 23.4 µM.
For `CCc1ccc(Cl)c(Nc2ccccc2C(=O)O)c1Cl` [AK2-292], the concentration for half-maximal inhibition (IC50) on CLC-2 [1] (setting [3]) came to 7.69 µM.
Still for that read-out and setting: to `Cc1ccc(Cl)c(Nc2ccccc2-c2nnn[nH]2)c1Cl` [AK3-89] belongs 33.4 µM.
Take `Cc1ccc(Cl)c(Nc2cccc(C(=O)O)c2)c1Cl` [AK3-97A]: the “% inhibition” value at CLC-2 [1] is “(36%)”. On CLC-2 [1] (setting [3]), the half-maximal inhibitory concentration (IC50) is more than 141 µM.
The corresponding values for `Cc1ccc(Cl)c(Nc2ccc(C(=O)O)cc2)c1Cl` [AK3-97B] are “(8%)” and more than 144 µM.
For `CCc1cccc(CC)c1Nc1ccccc1C(=O)O` [AK3-97C], the IC50 on CLC-2 [1] (setting [3]) turned out to be 86.3 µM.
On the same count and under the same terms, to `Cc1ccc(Cl)c(Nc2cc(F)ccc2C(=O)O)c1Cl` [AK3-98A] belongs 13.7 µM.
Consider `Cc1ccc(Cl)c2[nH]c3c(C(=O)O)ccc(F)c3c12` [AK3-98B], for which the “% inhibition” value at CLC-2 [1] is “(−16%)”. Besides, the IC50 on CLC-2 [1] (setting [3]) was more than 69 µM.
Take `COCOc1ccc(Cl)c(Nc2ccccc2C(=O)O)c1Cl` [AK3-99A]: on CLC-2 [1] (setting [3]), the half-inhibitory concentration (IC50) turned out to be 2.04 µM.
Still for that read-out and setting: the result for `O=C(O)c1ccccc1Nc1c(Cl)ccc(-c2ccccc2)c1Cl` [AK3-100A] reads 12.6 µM; that for `O=C(O)c1ccccc1Nc1c(Cl)ccc(OCC2CCCCC2)c1Cl` [AK3-101A], 2.98 µM; that for `COc1ccccc1-c1ccc(Cl)c(Nc2ccccc2C(=O)O)c1Cl` [AK3-101B], 5.29 µM.
Take `O=C(O)c1ccccc1Nc1c(Cl)ccc(O)c1Cl` [AK3-102A]: the 50% inhibitory concentration (IC50) at CLC-2 [1] (setting [3]) was 3.6 µM.
Regarding `O=C(O)c1ccccc1Nc1c(Cl)ccc(C2=CCCCC2)c1Cl` [AK3-103B], on CLC-2 [1] (setting [3]), the IC50 worked out at 48.8 µM.
`Cc1ccc(Cl)c(Nc2cccnc2C(=O)O)c1Cl` [AK3-107A]: on CLC-2 [1], the “% inhibition” value was “(12%)”. Besides, the 50% inhibitory concentration (IC50) at CLC-2 [1] (setting [3]) was more than 222 µM.
The corresponding values for `Cc1ccc(Cl)c(Nc2ccncc2C(=O)O)c1Cl` [AK3-107B] are “(16%)” and more than 42 µM.
With `Cc1ccc(Cl)c(Nc2cnccc2C(=O)O)c1Cl` [AK3-108A], the IC50 at CLC-2 [1] (setting [3]) turned out to be 115 µM.
For `Cc1ccc(Cl)c(Nc2ncccc2C(=O)O)c1Cl` [AK3-108B], the IC50 at CLC-2 [1] (setting [4]) is 4 ± 0.7 µM; at CLC-2 [1] (setting [3]), 1.79 µM; on CLC-1 it was more than 30 µM. Further, the “percent inhibition of CLC-1 at highest concentration tested (in parenthesis)” value at CLC-1 (at the concentration listed in the same cell) is 5%.
Take `Cc1ccc(Cl)c(Nc2ccccc2P(=O)(O)O)c1Cl` [AK3-118]: the “% inhibition” value on CLC-2 [1] is recorded as “(6%)”. Besides, the IC50 on CLC-2 [1] (setting [3]) is more than 195 µM.
Take `CCOP(=O)(O)c1ccccc1Nc1c(Cl)ccc(C)c1Cl` [AK3-119]: the “% inhibition” value on CLC-2 [1] is recorded as “(41%)”. Also, the IC50 on CLC-2 [1] (setting [3]) is more than 354 µM.
With `Cc1ccc(Cl)c(Nc2ccccc2C(N)=O)c1Cl` [AK3-124], the IC50 at CLC-2 [1] (setting [3]) came to 42.4 µM.
For the compound `NC(=O)c1ccc(COc2ccc(Cl)c(Nc3ccccc3C(=O)O)c2Cl)cc1` [AK3-219], the “% inhibition” value at CLC-2 [1] is given as “(15%)”. Besides, on CLC-2 [1] (setting [3]), the IC50 is more than 120 µM.
As to `O=C(O)c1ccc(COc2ccc(Cl)c(Nc3ccccc3C(=O)O)c2Cl)cc1` [AK3-224], at CLC-2 [1], the “% inhibition” value is listed as “(4%)”. Also, at CLC-2 [1] (setting [3]), the half-maximal inhibitory concentration (IC50) was more than 120 µM.
The corresponding values for `NC(=O)c1ccccc1COc1ccc(Cl)c(Nc2ccccc2C(=O)O)c1Cl` [AK3-225] are “(0%)” and more than 120 µM.
The corresponding values for `NC(=O)c1cccc(COc2ccc(Cl)c(Nc3ccccc3C(=O)O)c2Cl)c1` [AK3-226] are “(5%)” and more than 120 µM.
With `CC(=O)Nc1cccc(COc2ccc(Cl)c(Nc3ccccc3C(=O)O)c2Cl)c1` [AK3-227], the IC50 at CLC-2 [1] (setting [3]) was 81.9 µM.
As to `O=C(O)c1cccc(COc2ccc(Cl)c(Nc3ccccc3C(=O)O)c2Cl)c1` [AK3-239], at CLC-2 [1] (setting [3]), the IC50 was determined as 17.9 µM.
Turning to `O=C(O)c1ccccc1COc1ccc(Cl)c(Nc2ccccc2C(=O)O)c1Cl` [AK3-250], the half-maximal inhibitory concentration (IC50) at CLC-2 [1] (setting [3]) is 67.8 µM.
Take `O=C(O)c1cccc2c1[nH]c1c(Cl)ccc(OCc3ccccc3)c12` [AK3-251]: the “% inhibition” value at CLC-2 [1] is recorded as “(5%)”. For the same compound, the half-inhibitory concentration (IC50) on CLC-2 [1] (setting [3]) was more than 120 µM.
On to `O=C(O)c1ccccc1Nc1c(Cl)ccc(OCc2ccccc2F)c1Cl` [AK3-261], for which the IC50 on CLC-2 [1] (setting [3]) was 1.16 µM.
Same read-out and setting: to `O=C(CCCC[C@@H]1SC[C@@H]2NC(=O)N[C@@H]21)NCCOCCOCCOCCOCCC(=O)NCCOc1ccc(Cl)c(Nc2ccccc2C(=O)O)c1Cl` [AK3-294] belongs 77.1 µM.
In the case of `NCCOc1ccc(Cl)c(Nc2ccccc2C(=O)O)c1Cl` [AK3-296], the “% inhibition” value at CLC-2 [1] is “(7%)”. Besides, on CLC-2 [1] (setting [3]), the concentration for half-maximal inhibition (IC50) was more than 120 µM.
Consider `O=C(O)c1c2ccccc2cc2ccccc12` [Compound 9-AC], for which the “potency of previously reported small-molecule inhibitors of CLC-2” value at CLC-2 [2] is “mM range”.
On to `O=S(=O)(O)c1cc(N=C=S)ccc1C=Cc1ccc(N=C=S)cc1S(=O)(=O)O` [DIDS], for which, at CLC-2 [2], the “potency of previously reported small-molecule inhibitors of CLC-2” value was “mM range”.
As to `O=C(O)c1ccccc1Nc1ccccc1` [DPC, reference compound], on CLC-2 [1], the “% inhibition” value is recorded as “(27%)”. The IC50 at CLC-2 [1] (setting [3]) is more than 312 µM. Moreover, the “potency of previously reported small-molecule inhibitors of CLC-2” value at CLC-2 [2] is recorded as “mM range”.
Turning to `Cc1cccc(COc2ccc(Cl)c(Nc3ccccc3C(=O)O)c2Cl)c1` [EEGI-054], the concentration for half-maximal inhibition (IC50) on CLC-2 [1] (setting [3]) came out at 7.93 µM.
On the same count and under the same terms, the result for `Cc1ccccc1COc1ccc(Cl)c(Nc2ccccc2C(=O)O)c1Cl` [EEGI-055] reads 1.2 µM; that for `Cc1ccc(COc2ccc(Cl)c(Nc3ccccc3C(=O)O)c2Cl)cc1` [EEGI-056], 15.8 µM; that for `O=C(O)c1ccccc1Nc1c(Cl)ccc(OCCc2ccccc2)c1Cl` [EEGI-060], 7.32 µM.
On to `Cc1ccc(Cl)c(Nc2ccccc2C(=O)O)c1Cl` [MCFA, meclofenamate, reference compound], for which the half-inhibitory concentration (IC50) was 8.7 ± 0.3 µM on CLC-2 [1] (setting [4]); 14 µM and 13.9 µM on CLC-2 [1] (setting [3]); 60 ± 9 µM on CLC-1.
Take `O=C(O)c1cccnc1Nc1cccc(C(F)(F)F)c1` [NFA, reference compound]: at CLC-2 [1], the “% inhibition” value is listed as “(0%)”. Besides, the 50% inhibitory concentration (IC50) at CLC-2 [1] (setting [3]) was more than 120 µM.
Consider `O=C(O)c1cc([N+](=O)[O-])ccc1NCCCc1ccccc1` [NPPB], for which the “potency of previously reported small-molecule inhibitors of CLC-2” value at CLC-2 [2] is “mM range”.
